# Like-named read-outs stand apart in the source and are kept apart here.
# Legend:
# [1] = Body mass change of mice in in vivo PDT treatment groups; design: species or system Balb/c mice; conditions: control and treatment groups, after 14 days
# Method: (§1) An optical fiber-coupled 980 nm high power laser diode (Hi-Tech Optoelectronics Co., Ltd. Beijing, China) was used to irradiate tumors at a power density of about 0.5 W/cm^2 for 40 min. (1 min. interval after each minute of irradiation). The tumor sizes were measured by a caliper every other day and calculated as the volume (tumor length)×(tumor width)^2/2. The body weight of mice was also measured with every tumor measurement and percent change was calculated by the formula (observed body weight)/(body weight on day 0)×100%.
# FIG. 15 is a plot of body mass change of mice in in vivo PDT treatment groups with UCNP and light exposure after 14 days. […]
# HeLa cells [2] = experiment: Simulated deep-tissue photodynamic therapy, MTT assay with pork tissue between laser and cells; format: cell-based; conditions: 100 μg/mL; for cell viability: CW 980 nm 1 W/cm^2, 20 min
# Method: Photodynamic therapy of a deep-set tumor condition using the 5-aminolevulinic acid conjugated upconverting nanoparticles with an 80% ytterbium ratio was simulated by placing pieces of pork tissue of varying thickness (representing a patient's flesh) between a near infra-red laser and HeLa cells exposed to the upconverting nanoparticles, as shown in FIG. 12(a). The cells were analyzed for cell viability using an MTT assay. After 20 min. of irradiation at 1 W/cm^2, for all pork thicknesses, the cells exposed the 5-aminolevulinic acid conjugated nanoparticles as disclosed herein had cell viabilities that were reduced significant to the control hydrazide-functionalized upconverting nanoparticles (Hyd-UCNPs). In the absence of pork (0 mm), cell viability was less than 20%, in the presence of 6 mm pork, cell viability was less than 50%, and even with 12 mm pork, cell viability was still reduced to below 80% compared to the control. This establishes and validates the feasibility of using upconverting nanoparticles as a near infra-red-to-red transducer for prodrug photodynamic therapy at a deep-tissue level (up to about 1 cm or greater).
# Finally, the red-emitting upconverting nanoparticle system containing an ytterbium ratio of 80% was compared with the known upconverting nanoparticle β/β core/shell red-emitting nanoparticles at a deep tissue level with a biocompatible low power density 0.35 W/cm^2 for laser irradiation. […] The 5-aminolevulinic acid conjugated nanoparticles described herein having an ytterbium ratio of 80% achieved 40% cell death even through 1.2 cm of pork. The ability of the presently-disclosed lanthanide-doped upconverting nanoparticles' to induce significant phototherapeutic effect with such low power excitation yet thick superficial tissue makes it a major step forward in photodynamic therapy materials.
# FIGS. 12(a) and 12(b): FIG. 12(a) Photograph of the setup for simulated photodynamic therapy using an in vitro MTT assay. FIG. 12(b): Plots of HeLa cell viability for cells covered with 0, 6, and 12 mm pork tissue on top of the cells and irradiated with CW 980 nm light at a 1 W/cm^2 power density for 20 min.
# FIG. 13: Plots of HeLa cell viability for cells covered with 0, 6, and 12 mm pork tissue on top of the cells and irradiated with CW 980 nm light at a 0.35 W/cm^2 power density for 20 min.
# 4T1 tumors = experiment: In vivo deep tumor photodynamic therapy treatment, tumor volume; design: species or system Balb/c mice; conditions: intratumoral
# Method: In vivo testing was conducted in subcutaneous tumors grown on Balb/c mice models to evaluate the effect of photodynamic therapy treatment using the upconversion nanoparticles described herein. The tumor volume reduction effect of a red light laser ranging from ˜635-685 nm (PpIX's activation region) and 980 nm light irradiation (activation wavelength of the upconverting nanoparticles described herein) was compared at a biocompatible level of 0.5 W/cm^2.
# Female Balb/c mice were purchased from Nanjing Peng Sheng Biological Technology Co. Ltd. and used under protocols approved by Soochow University Laboratory Animal Center. 4T1 cells (1×10^6) suspended in 40 μL of PBS were subcutaneously injected into the back of each female Balb/c mouse. After about 6 days, the mice bearing 4T1 tumors were treated when the tumor volume reached about 50 mm^3.
# as §1
# FIGS. 14(a) and 14(b). FIG. 14(a): Plots of the in vivo volume of tumors exposed to various controls and ALAUCNPs with red and near-infrared irradiation (0.5 W/cm^2) in simulated deep tumors. […] Statistical significance was determined from one-way t tests; significance (*) was based on p<0.05 and p>0.05 for not significant (**) pairs. There was no statistical difference between treatments with ALA-UCNPs with no pork whether red or near infra-red light was used. […] FIG. 14(b) is a diagram of in vivo photodynamic therapy treatment with red or near infra-red light conducted inserting pork tissue between the laser and the mice tumors to simulate treatment of deep tumors.
# HeLa cells [3] = conditions: 100 μg/mL
# Method: As a model to examine the efficacy of 5-aminolevulinic acid-conjugated upconverting particles as described herein, particles prepared as described herein (having an 80 mol % Yb content), a 3-(4,5-dimethylthiazol-2-yl)-2,5-diphenyltetrazolium bromide (MTT) proliferation assay was conducted to determine inhibition of cell proliferation using photodynamic therapy with the nanoparticles prepared as described herein. In the cell proliferation assay, HeLa cells were exposed to 5-aminolevulinic acid-conjugated upconverting particles and various controls (all 100 μg/mL) for 4 h and the cells were then irradiated by irradiation of continuous wave 980 nm light at 1 W/cm^2. The results of the assay are shown in FIG. 8, which depicts cell viability as a function of irradiation time.
# Then, impact of the lanthanide-doped upconverting nanoparticles on 5-ALA-induced photodynamic therapy was evaluated. […] Cells exposed to these control nanoparticles were irradiated at a biocompatible low power density of 0.35 W/cm^2.
# A 96-well microtiter plate seeded with 1×10^4 HeLa cells/well was incubated overnight at 37° C. with 5% CO2. Cells were subsequently exposed to (i) 5-aminolevulinic acid functionalized upconverting nanoparticles comprising 80 mol % ytterbium (ALA-UCNPs, 100 μg/mL), (ii) hydrazide functionalized upconverting nanoparticles (no 5-ALA) (Hyd-UCNPs, 100 μg/mL), (iii) free 5-aminolevulinic acid (ALA, 100 μg/mL) or (iv) PBS (growth medium control) and then irradiated with CW 980 nm laser diode at 1 W/cm^2 for 0, 5, 10, or 20 min. After overnight incubation, cells were labeled with 12 mM solution of MTT in PBS for 4 h. Finally, the media was aspirated and replaced with 50 μL DMSO and cell viability was quantified by formazan absorption determined by a plate reader at 540 nm.
# FIG. 8: Plots showing the viability of HeLa cells irradiated with CW 980 nm light at 1 W/cm^2 power density.
# FIG. 9: Plots showing the viability of HeLa cells irradiated with CW 980 nm light at 0.35 W/cm^2 power density. […]
# [4] = test system: singlet oxygen production in HeLa cells; experiment: Singlet oxygen detection by DCFDA fluorescence (imaging and plate reader); format: cell-based; conditions: 100 μg/mL, CW 980 nm 1 W/cm^2, 0, 5, 10 min irradiation
# Description: To investigate the mechanism of the results from the above mentioned experiments, cells were stained with 2′,7′-dichlorofluorescein diacetate (DCFDA), a fluorescent indicator for singlet oxygen generation, and imaged using fluorescence microscopy. When DCFDA diffuses into the cell it is […] into a non-fluorescent compound by cellular esterases. Reactive oxygen species (ROS) oxidize the non-fluorescent compound to 2′, 7′-dichlorofluorescein (DCF), which has bright green fluorescence. […] See images (a), (b) and (c) of FIG. 10. […] See images (d), (e) and (f) of FIG. 10. The data were corroborated by quantifying the singlet oxygen production by measuring the fluorescence intensity of the DCFDA using 96-well microtiter plate reader. Both DCFDA fluorescence imaging and microtiter plate measurement indicate effective prodrug delivery and subsequent PpIX activation by the red-emitting upconverting nanoparticles provided by the present disclosure.
# Glass-bottom confocal dishes seeded with 1×10^6 HeLa cells were incubated overnight at 37° C. with 5% CO2. […]
# FIGS. 10(a), 10(b), 10(c), 10(d), 10(e) and 10(f). Fluorescence microscopy images showing detection of singlet oxygen production in cells by the fluorescence of DCFDA.
# [5] = Hydrodynamic size by dynamic light scattering; format: physicochemical; conditions: dynamic light scattering in PBS
# Method: Dynamic light scattering was used to determine that the hydrodynamic size of the 5-ALA-conjugated nanoparticles was about 62 nm as shown in FIG. 6.
# (§2) FT-IR spectra were recorded on a Nicolet Nexus FT-IR spectrometer, using the SMART iTR™ for ATR measurements. The upconversion photoluminescence spectra were measured by a SPEX FluoroMax®-3 spectrofluorimeter (Horiba) (spectral resolution of 1 nm, emission slit of 5 nm, and integral period of 0.1 s) excited at 980 nm using a fiber-coupled laser diode introduced to the sample chamber of the spectrofluorimeter. Cells were imaged using a Nikon Eclipse TE 2000 microscope, equipped with a Nuance CCD camera capable of imaging. The light source was a fiber-coupled laser diode emitting at 980 nm, with the fiber introduced through the entrance port of the microscope. The size distribution of the samples was determined by dynamic light scattering (DLS) equipped with a Zetasizer Nano-ZS (He—Ne laser wavelength at 633 nm) and an auto-titrator (Malvern Instruments, Malvern, UK). The absorbance for the MTT experiment and the fluorescence for DCFDA staining experiment was found using a microplate reader (Molecular Devices Co., Menlo Park, Calif.). 5-ALA concentration was monitored by HPLC (Varian ProStar) for loading efficiency data.
# [6] = 5-Aminolevulinic acid loading determination by HPLC; format: physicochemical; conditions: HPLC of supernatants, back-calculation
# Description: FT-IR spectral analysis confirmed that the conjugation of 5-ALA to the nanoparticles was via a hydrazone linkage as shown in panels (d) and (e) of FIG. 7, which show (d) full and (e) detailed spectra for polyacrylic acid-coated upconverting nanoparticles, (PAA-UCNPs), hydrazide-functionalized upconverting nanoparticles (Hyd-UCNPs) and 5-ALA-conjugated upconverting nanoparticles. On the spectrum for Poly(acrylic) acid-functionalized UCNPs (PAA-UCNPs), the peak at 1636 cm^−1 is attributed to the resonance of the carboxyl groups. […]
# as §2, with “Cells were imaged using a Nikon Eclipse TE 2000 microscope, equipped with a Nuance CCD camera capable of imaging. The light source was a fiber-coupled laser diode emitting at 980 nm, with the fiber introduced through the entrance port of the microscope.” left out, “5-ALA concentration was monitored by HPLC (Varian ProStar) for loading efficiency data.” left out
Substance,body mass change [1],cell viability (HeLa cells [2]; 6 mm pork),"cell viability (HeLa cells [2]; 12 mm pork, compared to the control)",cell viability (HeLa cells [2]; absence of pork (0 mm)),"cell death (HeLa cells [2]; through 1.2 cm of pork, CW 980 nm 0.35 W/cm^2, 20 min) [%]","tumor reduction, 980 nm light with 12 mm pork versus red light with 6 mm pork (4T1 tumors; 0.5 W/cm^2)","tumor volume, treatment with NIR versus red light (4T1 tumors; 0.5 W/cm^2, no pork)","tumor reduction (4T1 tumors; 980 nm 0.5 W/cm^2, 6 or 12 mm of pork tissue above the tumor)","therapeutic effect (4T1 tumors; red light irradiation 0.5 W/cm^2, pork tissue above the tumor)","viability of cells (HeLa cells [3]; 4 h exposure, CW 980 nm 1 W/cm^2, 10 min irradiation)","cell death (HeLa cells [3]; CW 980 nm 0.35 W/cm^2, 20 min irradiation)","killing rate (HeLa cells [3]; CW 980 nm 1 W/cm^2, 10 min irradiation) [%]",DCFDA fluorescence (singlet oxygen generation) [4],hydrodynamic size [5],loading capacity for 5-ALA [6],cell killing (HeLa cells [3]; CW 980 nm 0.35 W/cm^2)
"α-NaYF4:Yb(80%),Er(2%)@CaF2 ALA [ALA-UCNPs]",no significant difference across the groups,less than 50%,below 80%,less than 20%,40,significantly more effective,no statistically significant difference,about 150 mm^3,no noticeable therapeutic effect,about 30%,more than 60%,~70,intensifying DCFDA fluorescence over irradiation time,about 62 nm,about 4.5 μmol/mg,
"β-NaYF4:Yb(20%),Er(2%)@β-NaYF4 ALA [reference compound]",,,,,,,,,,,,,,,~4.5 µmol/mg,no cell killing

# From patent US9956426B2, “Upconverting nanoparticles” (priority 2015, dated 2018)
